We go through 6 molecules from PubChem BioAssay (NCI).

Where “and” joins values, the source holds several entries; their conditions need not be identical. Identical values can stand only once.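 Five concentrations, 48 hours, 96-well plates. GI50 marks 50% less growth. TGI denotes the concentration required for complete inhibition of growth.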

Some test systems named below: MOLT-4 leukemia; HS 578T breast; IGROV1 ovarian; SK-MEL-28 melanoma; SW-620 colon; SN12C renal; TK-10 renal; SK-MEL-5 melanoma; A498 renal; HOP-92 NSCLC.
Holding throughout (assay): growth of human tumour cells (NCI), 48 h

Turning to `Cc1ccncc1C(N)=O`, the GI50 in the assay on MOLT-4 leukemia, in the assay with HS 578T breast, in the assay on IGROV1 ovarian, in the assay on SK-MEL-28 melanoma, in the assay with SW-620 colon and in the assay on SN12C renal was more than 100 µM each time. The GI50 with TK-10 renal, with SK-MEL-5 melanoma, in the assay with A498 renal and in the assay with HOP-92 NSCLC was more than 100 µM in each case. The TGI in the assay with MOLT-4 leukemia, in the assay with HS 578T breast, with IGROV1 ovarian, in the assay on SK-MEL-28 melanoma, with SW-620 colon and with SN12C renal was more than 100 µM in each case. Besides, the TGI with TK-10 renal, in the assay on SK-MEL-5 melanoma, with A498 renal and in the assay with HOP-92 NSCLC was more than 100 µM in each case.

For `COc1cc(-c2nn(-c3cccc(NC(=O)CCN4CCN(Cc5ccccc5)CC4)c3)cc2-c2ccncc2)ccc1Cl`, the GI50 is 1.15 µM in the assay with MOLT-4 leukemia; 1.02 µM in the assay with HS 578T breast; 0.954 µM with IGROV1 ovarian; 1.33 µM in the assay on SK-MEL-28 melanoma; 0.49 µM with SW-620 colon; 2.13 µM in the assay on SN12C renal. In addition, the GI50 was 2.93 µM with TK-10 renal, 1.1 µM in the assay on SK-MEL-5 melanoma, 1.41 µM in the assay with A498 renal and 0.79 µM with HOP-92 NSCLC. Further, the TGI with MOLT-4 leukemia is 5.8 µM; in the assay on HS 578T breast it was 4.34 µM; in the assay with IGROV1 ovarian, 7.88 µM; with SK-MEL-28 melanoma, 2.84 µM; with SW-620 colon, 1.93 µM; in the assay on SN12C renal, 20.3 µM. Besides, the TGI with TK-10 renal worked out at 12.2 µM; in the assay on SK-MEL-5 melanoma, 2.31 µM; with A498 renal, 6.71 µM; in the assay with HOP-92 NSCLC, 4.44 µM.

Consider `FC(F)(F)c1cccc(-c2nn3ncccc3c2-c2ccnc(Nc3ccc4c(c3)OCCO4)n2)c1`, for which the GI50 in the assay on MOLT-4 leukemia is 11.8 µM; with HS 578T breast it was 16.4 µM; with IGROV1 ovarian, 5.38 µM; in the assay with SK-MEL-28 melanoma it was more than 25 µM; with SW-620 colon, 9.68 µM; in the assay on SN12C renal, 11.7 µM. For the same molecule, the GI50 with TK-10 renal was 8.49 µM; in the assay on SK-MEL-5 melanoma it was 7.87 µM; in the assay on A498 renal, 9.59 µM; in the assay on HOP-92 NSCLC, 5.52 µM. For the same molecule, the TGI in the assay on MOLT-4 leukemia is more than 25 µM; with HS 578T breast, more than 25 µM; with IGROV1 ovarian it was more than 22.2 µM; with SK-MEL-28 melanoma it was more than 25 µM; in the assay on SW-620 colon, more than 25 µM; with SN12C renal, more than 25 µM. The TGI with TK-10 renal, in the assay with SK-MEL-5 melanoma, with A498 renal and in the assay with HOP-92 NSCLC was more than 25 µM throughout.

As to `NNc1nnc(-c2nnc(NN)o2)o1`, the TGI with MOLT-4 leukemia, with HS 578T breast, in the assay with IGROV1 ovarian, with SK-MEL-28 melanoma, in the assay on SW-620 colon and with SN12C renal was more than 10 µM each time. Besides, the TGI in the assay with TK-10 renal, in the assay with SK-MEL-5 melanoma, in the assay on A498 renal and in the assay with HOP-92 NSCLC was more than 10 µM in each case.

Regarding `CSc1ccc(C2=NN(C(C)=O)C(c3ccc(-c4ccc(Cl)cc4)o3)C2)cc1` (centres undefined), the GI50 in the assay with MOLT-4 leukemia is 16.4 µM; in the assay on HS 578T breast, 49.8 µM; in the assay on IGROV1 ovarian, 6.06 µM; in the assay with SK-MEL-28 melanoma, 86.2 µM; with SW-620 colon, 77.7 µM; in the assay with SN12C renal, 21.7 µM. In addition, the GI50 was 37.3 µM with TK-10 renal, 29.1 µM in the assay with SK-MEL-5 melanoma, 26 µM in the assay with A498 renal and 22.7 µM in the assay with HOP-92 NSCLC. In addition, the TGI in the assay on MOLT-4 leukemia was 97.3 µM; with HS 578T breast, more than 100 µM; in the assay with IGROV1 ovarian, more than 100 µM; with SK-MEL-28 melanoma, more than 100 µM; in the assay with SW-620 colon it was more than 100 µM; in the assay on SN12C renal it was 40.6 µM. Moreover, the TGI was more than 100 µM in the assay on TK-10 renal, more than 100 µM with SK-MEL-5 melanoma, 48 µM in the assay on A498 renal and 80.1 µM in the assay on HOP-92 NSCLC.

Turning to `COc1ccc(/C=C(/C)[N+](=O)[O-])cc1OC`, the GI50 in the assay with MOLT-4 leukemia was 2.94 µM and 3.32 µM; with HS 578T breast it was 6.2 µM and 5.55 µM; in the assay with IGROV1 ovarian, 2.79 µM and 2.26 µM; in the assay with SK-MEL-28 melanoma, 1.76 µM and 1.87 µM; in the assay with SW-620 colon it was 1.56 µM and 1.1 µM; in the assay with SN12C renal, 2.35 µM and 2.18 µM. The GI50 with TK-10 renal is 1.76 µM and 1.32 µM; in the assay with SK-MEL-5 melanoma, 1.71 µM and 1.9 µM; with A498 renal, 5.13 µM and 4.73 µM; with HOP-92 NSCLC it was 1.78 µM and 2.48 µM. Moreover, the TGI in the assay on HS 578T breast is more than 100 µM; with IGROV1 ovarian, 7.75 µM and 5.68 µM; with SK-MEL-28 melanoma it was 3.66 µM and 3.6 µM; in the assay on SW-620 colon, 3.04 µM and 2.7 µM; with SN12C renal it was 6.07 µM and 5.77 µM; in the assay on TK-10 renal, 3.5 µM and 2.7 µM. The TGI in the assay with SK-MEL-5 melanoma is 3.09 µM and 3.43 µM; in the assay with A498 renal, 17.2 µM and 16.6 µM; with HOP-92 NSCLC, 4.52 µM and 5.64 µM.
